Laboratory results from ChEMBL document CHEMBL1148780, “Design and evaluation of naphthol- and carbazole-containing fluorescent sigma ligands as potential probes for receptor binding studies” (J Med Chem, 2007).

Experiments:
[1] = molecular target: T1, 3-beta-hydroxysteroid-Delta(8),Delta(7)-isomerase (Cavia porcellus, UniProt Q60490); test: Displacement of [3H]emopamil from Delta-(8)-Delta-(7) sterol isomerase in guinea pig liver membrane; format: cell membranes
T1 sequence (Q60490 whole entry): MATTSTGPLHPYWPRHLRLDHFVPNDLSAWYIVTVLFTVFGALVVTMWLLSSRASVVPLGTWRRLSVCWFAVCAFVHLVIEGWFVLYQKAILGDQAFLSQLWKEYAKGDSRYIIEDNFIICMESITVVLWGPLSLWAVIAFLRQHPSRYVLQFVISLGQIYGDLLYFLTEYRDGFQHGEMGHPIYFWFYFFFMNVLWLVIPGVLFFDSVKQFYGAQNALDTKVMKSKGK

[2] = Displacement of [3H]DTG from sigma2 receptor in Wistar rat liver membrane in presence of 1 uM […]; format: cell membranes
[3] = molecular target: Sigma non-opioid intracellular receptor 1 (Cavia porcellus, UniProt Q60492); test: Displacement of [3H]pentazocine from Sigma1 receptor in guinea pig brain membrane; format: cell membranes
Chain of Sigma non-opioid intracellular receptor 1 (Q60492 whole entry): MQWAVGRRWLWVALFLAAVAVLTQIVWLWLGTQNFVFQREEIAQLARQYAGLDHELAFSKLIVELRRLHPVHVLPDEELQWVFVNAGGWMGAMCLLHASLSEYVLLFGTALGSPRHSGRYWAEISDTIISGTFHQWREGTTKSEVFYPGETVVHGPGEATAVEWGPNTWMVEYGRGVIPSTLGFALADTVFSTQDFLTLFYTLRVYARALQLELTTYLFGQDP

[4] = Selectivity for sigma1 receptor over sigma2 receptor
Rattus norvegicus = species on record: Rattus norvegicus; test: (§1) Binding affinity to sigma2 receptor in Wistar rat liver membrane; format: cell membranes
[5] = as §1; format: cell membranes

Ki [1] [nM] | Ki [2] [nM] | Ki [3] [nM] | Ratio Ki [4] | Bmax (Rattus norvegicus) [pmol/mg] | Kd [5] [nM] | Compound
55 | 11.8 | 5.48 | 2 | – | – | Oc1ccc2cccc(CCCN3CCN(C4CCCCC4)CC3)c2c1
24 | 117 | 138 | 0.8 | – | – | CC1(C)CCCN(CCCCCn2c3ccccc3c3ccccc32)C1
– | – | – | 680 | – | – | COc1ccc2c(CCCN3CCCC(C)(C)C3)cccc2c1
345 | 4480 | 2020 | 2 | – | – | CC1(C)CCCN(CCCn2c3ccccc3c3ccccc32)C1
21.3 | 26.4 | 6.78 | 4 | 0.47 | 21.3 | Oc1ccc2c(CCCN3CCN(C4CCCCC4)CC3)cccc2c1
79.9 | 12.6 | 3450 | 0.004 | – | – | c1ccc2c(c1)c1ccccc1n2CCCN1CCN(C2CCCCC2)CC1
4.51 | 9.24 | – | – | – | – | COc1cccc2c(CCCN3CCN(C4CCCCC4)CC3)cccc12
270 | 520 | 175 | 3 | – | – | CC1(C)CCCN(CCCCn2c3ccccc3c3ccccc32)C1
352 | 600 | 340 | 2 | – | – | CC1(C)CCCN(CCCc2cccc3cc(O)ccc23)C1
19.8 | – | – | – | – | – | CC(C(O)c1ccc(O)cc1)N1CCC(Cc2ccccc2)CC1 (racemic) [IFENPRODIL]
42.4 | 8.27 | 0.9 | 9 | – | – | COc1ccc2cccc(CCCN3CCN(C4CCCCC4)CC3)c2c1
12.8 | 643 | 44.9 | 14 | – | – | COc1cccc2c(CCCN3CCCC(C)(C)C3)cccc12
– | 30.8 | – | – | – | – | Cc1ccccc1NC(=N)Nc1ccccc1C [DITOLYLGUANIDINE]
7.06 | 9.02 | 3.16 | 3 | – | – | COc1ccc2c(CCCN3CCN(C4CCCCC4)CC3)cccc2c1
4.12 | 672 | 115 | 6 | – | – | COc1ccc2cccc(CCCN3CCCC(C)(C)C3)c2c1
30 | 412 | 733 | 0.6 | – | – | CC1(C)CCCN(CCCc2cccc3ccc(O)cc23)C1
